Measured values from a melting point compilation (Tetko et al.; mined from patent text by program, amines drawn as free bases though some values may be those of a salt).

Structure (SMILES)	melting point [°C]
CC(C)(C)CCNc1cccc(-c2ccnc3c(C(=O)c4cccs4)cnn23)c1	156 to 158
CCCCC(OC(C)=O)c1ccccc1COc1cccc2cccnc12 (stereo not drawn)	80 to 82
CS(=O)(=O)OCCc1ccc(N2CCCC2=O)cc1	94
CCC1Cc2c(O)cc(OC)cc2C(=O)O1 (stereo not drawn)	167 to 168
O=C(c1ccc(-c2ccccn2)cc1)N1Cc2cccn2Cc2ccccc21	170 to 172
COc1cc(C(=O)c2ccc(N)c(C(=O)O)c2)n2ccccc12	106
Cc1sc(-c2ccccc2)nc1COc1cc(COc2ncccc2CC#N)on1	103 to 104
COc1cc(/C(C#N)=C\c2ccc(Cl)c(N)c2)cc(OC)c1OC	150 to 151
CC(=O)NCC[C@@H]1CCc2ccc3nn(C)c(F)c3c21	155 to 156
CNc1c([N+](=O)[O-])cc(C(C)(C)C)cc1[N+](=O)[O-]	129 to 130
COc1cc(-c2oc3ccccc3c(=O)c2C(=O)NCCCCN2CCN(c3ccccn3)CC2)cc(OC)c1OC	168 to 173
COC1C(O)C(CO)OC1n1cnc2c(N)nc(N)nc21 (stereo not drawn)	133 to 135
CCCCc1nc2c(N)nc3ccccc3c2n1CC(C)(C)C(N)=O	231 to 233
COC(=O)c1ccc2c(c1)OCCO2	43 to 45
O=C(NCCc1c2n(c3ccc(O)nc13)CCCc1ccccc1-2)c1ccco1	> 260
CNc1ccc(C)cc1C(=O)Cc1nnnn1C	141 to 143
O=C(O)CC(Br)C(Br)c1ccc(-c2ccccc2)cc1 (stereo not drawn)	200 to 203
Cc1ccc(-c2cc[nH]c2)cc1	92 to 93
CCCSc1cc(C(=O)CCC(=O)c2cc(OC)c(OC)c(OC)c2)cc(OC)c1OCc1ccccc1	114 to 115
O=C(O)c1cnn2c(C3CC3)cc(-c3ccc(Cl)cc3)nc12	242 to 243
O=C1CC2(CCCCC2Cc2ccccc2)S(=O)(=O)CCN1 (stereo not drawn)	130 to 135
Cc1c(C)c(C(=O)O)c(C)c(C)c1C(=O)O	> 300
Cc1ccn(-c2ccc(C(=O)N3Cc4cccnc4Nc4ccccc43)c(Cl)c2)n1	192 to 193
CC(C)[C@H](NC(=O)N(C)Cc1csc(C2CCC2)n1)C(=O)N[C@@H](Cc1ccccc1)C[C@H](O)[C@H](Cc1ccccc1)NC(=O)OCc1cncs1	74 to 76
COCCCOc1ccc(CCCO)c(Oc2ncc(C(F)(F)F)cc2Cl)c1	68.7 to 70.9
COc1cc(N)c(Cl)cc1C(=O)NCC1CCN(CCCCCC(=O)c2ccc(C)cc2C)CC1	106 to 110

Structure (SMILES)	melting point [°C]
Cn1c(COc2ccc(CC3SC(=O)NC3=O)cc2)nc2ccc(Oc3ccc(NC(=O)Nc4ccc(C(F)(F)F)cc4)cc3)cc21 (stereo not drawn)	179 to 180
OCCC1CCc2cc3ccccc3n2C1 (stereo not drawn)	70 to 72
CN1C(=O)N2CCSC2(C)C1=O (stereo not drawn)	67 to 68
CP(=O)(O)CCC(=O)Nc1c(Br)cc(Br)cc1Br	248
c1ccc(-c2ncc(N3CCCC3CCCCOC3CCCCO3)nc2-c2ccccc2)cc1 (stereo not drawn)	94 to 96
CONC(=O)C=C1SC(Nc2c(Cl)cccc2Cl)=NC1=O	205 to 206
COC(=O)c1oc(C)nc1-c1ccc2c(c1)CCCC2	96 to 97
CC(C)(C)NS(=O)(=O)c1c(C(Br)Br)nsc1OCC(F)(F)F	135 to 138
CCOC(=O)/C(Cl)=N/Nc1ccc(OC)cc1	87 to 89
COC(=O)c1ccc2scc(-c3ccc(SC)cc3)c2c1	135 to 136
COc1c(I)c(OC)c2ccccc2c1C(=O)OCc1ccccc1	80 to 83
COc1ccc([C@@H]2CCc3cc(OC)ccc3[C@@H]2CCCO)cc1 (relative stereo)	99
CCCn1nc(SC2CCC(CC(=O)O)CC2)c(C(=O)O)c1Cc1cc2c(cc1Cl)OCO2 (stereo not drawn)	178
Nc1cccc(C2=NCCO2)c1	126 to 128
Cc1ccc(NC(=O)NCC(=O)N(CC(=O)OC(C)(C)C)c2ccccc2C(=O)c2ccccc2)cc1	182 to 183
Nc1ccc(S(=O)c2ccccc2)cc1[N+](=O)[O-] (stereo not drawn)	146 to 147
CCCCCCCC(=N)NC(=S)Nc1ccc(Cl)cc1	98 to 99
O=C1CCC(N2C(=O)c3cccc(CNC(=O)Nc4ccc5c(c4)OCO5)c3C2=O)C(=O)N1 (stereo not drawn)	216 to 218
CC(C)(C)C(=O)Oc1ccc(CCNC(=O)c2cccnc2)cc1	80 to 82
O=C(O)Cc1ccc2cc(O)ccc2c1	208 to 210
Cc1cc(NC(=O)Nc2c(C)cccc2C)no1	200
CCCc1c(C(=O)OCC)sc2[nH]c(=O)c(=O)[nH]c12	305 to 307
C[C@H]1CCCC(C)(C)[C@@H]1C(=O)c1ccc(C(F)(F)F)cc1	16 to 20
Cc1cc(C#CC2(O)CN3CCC2CC3)cc(C)c1OCCOc1ccccc1 (stereo not drawn)	141 to 142
COc1ccc(CCc2nccn3c(Br)cc(Br)c23)cc1	75 to 76
CN1C(=O)CN=C(N2CCC(C)(C)CC2)c2ccccc21	143 to 145

Structure (SMILES)	melting point [°C]
CC1(C)CC(=O)C(C(=O)Nc2cc(F)cc(F)c2)C(=O)C1F (stereo not drawn)	131 to 132
COc1ccccc1C(N)=CC#N	74 to 75
CCCCCN1Cc2cccc(S(N)(=O)=O)c2S1(=O)=O	156 to 160
COC1=C(OC)C(=O)c2cc(Sc3ccccc3Cl)ccc2C1=O	125 to 126
Cn1cc(C(=O)NCc2ccc(Cl)cc2)c(=O)c2cc(CN3CCOc4ccccc43)ccc21	193 to 194
N#Cc1cc(-c2ccc(Cl)cc2)c[nH]c1=O	278 to 280
CN(C)Cc1csc(N(C)CC#CI)n1	98 to 100
CC(=O)Nc1ccc(OCCOCCOc2ncc(Cl)cn2)cc1	110
COc1ccc(C(=O)Nc2ccccc2S(C)(=O)=O)cc1OC1CCCC1	119 to 121
O[C@H](CCc1cccnc1)COc1ccc(C#Cc2ccccc2)cc1	67 to 68
CSC(=CC(=O)c1cccc(C(F)(F)F)c1)SC	89.5
CCOc1cc(N)ccc1C(O)c1cc(C)ccn1 (stereo not drawn)	102 to 105
Cc1cc(SC2=C(O)CC(C3CCCC3)(C3CCCC3)OC2=O)c(C(C)(C)C)cc1NS(=O)(=O)c1ccc(C(F)(F)F)cn1	127 to 129
O=C1CC(S(=O)Cc2ccccc2)N1CCCc1ccccc1 (stereo not drawn)	93 to 96
Cc1oc(C=Cc2ccc(Cl)cc2)nc1CCl	121 to 122
CN(C(=S)c1ccc([N+](=O)[O-])cc1)C1CCN(C2CCCCC2)C1 (stereo not drawn)	108 to 110
C[C@@H](n1cnc2ccccc2c1=O)[C@](O)(Cn1cncn1)c1ccc(F)cc1F	122 to 128
O=c1[nH]c(-c2ccc(Cl)c(Cl)c2)co1	262 to 263
O=C(NCCCC(=O)N1CCCC1)c1cc(Br)no1	120 to 121
O=C1NC(=O)c2ccccc2/C1=C/Nc1ccc(CCN2CCCC2)cc1	224 to 225
Cc1ccc2c(c1)CCN1C2CC(=O)C2CCCCC21 (stereo not drawn)	101 to 121
CSc1ncc(Cc2ccccn2)c(=O)[nH]1	195 to 198
CCC1(C)CC(O)C2(C)CCC3c4ccc(O)cc4CCC3C12 (stereo not drawn)	132 to 136
FC(F)(F)c1ccc(CN2CC3(COc4ccc(-c5cccnc5)cc43)c3ccccc32)o1 (stereo not drawn)	98 to 100
CCOc1ccc(S(=O)(=O)N2CCN(C)CC2)cc1C#N	130 to 131
O=C(NC(=O)c1ccccc1Cl)Nc1cc(C(F)(F)F)c(Br)cc1Br	191

Structure (SMILES)	melting point [°C]
COC(=O)c1c(F)c(F)c(NCc2ccccc2)c(F)c1F	96 to 97
CC(C)c1ccc2c(c1)c(SCC1CC1)c(CC(C)(C)C(N)=O)n2Cc1ccc(Cl)cc1	137 to 138
O=C(Nc1ccc(Cl)nc1)c1ccc(-n2ccnc2)c(F)c1	210 to 211
O=C(O)COc1ccc2c(=O)c3c(Cl)cccc3oc2c1Cl	270 to 271
N#Cc1ccccc1-c1ccc(CNc2cc(Cl)nc3ccnn23)cc1	162 to 163
COc1cc(Cc2cnc(N)nc2NO)cc(OC)c1OC	208 to 210
CCOC(=O)c1ccc(OCCCN2CCN(c3ccc(Cl)nn3)CC2)cc1	125 to 127
CCOC(=O)N1CCN(CCNc2ncnc3c2sc2nc(N(C)C)c4c(c23)CC(C)(C)CC4)CC1	138 to 140
CCC1Nc2c(cc(C)nc2C)N1c1ccc(CCNC(=O)NS(=O)(=O)c2ccc(C)cc2)cc1 (stereo not drawn)	143
COc1ccc(C#N)c(F)c1OC(C)=O	90 to 91
O=C(Cc1ccc(Oc2ccccc2)cc1)NNC(=O)c1ccc(O)cc1	181 to 183
N#CC1C(=O)Nc2cc(Cl)ccc2C1=O (stereo not drawn)	314 to 316
Cc1ccc(S(=O)(=O)NCc2ccc(CCN3CCN(c4ccncc4)CC3)cc2)cc1	180 to 182
S=c1cc(N2CCCC2)ss1	230
CCc1ccc(C2C(=O)Oc3ccccc32)cc1 (stereo not drawn)	127 to 132
Clc1nnc(Cl)c2cc3ccccc3cc12	224 to 228
O=C(CN1C(=O)C(c2ccccc2)c2ccccc21)NCc1ccccc1 (stereo not drawn)	182 to 183
Cc1ccccc1C=C1CCn2c1nc1ccc(C(N)=O)cc1c2=O	347 to 349
CN(C(=O)OC(C)(C)C)[C@H](Cc1ccc(Cl)c(Cl)c1)[C@H](O)CC(=O)N[C@@H]1CCCCNC1=O	187
Cc1nnc2n1-c1sc(CCC(=O)N3CCCCC3)cc1C(c1ccccc1Cl)=NC2C (stereo not drawn)	157 to 160
CC(C)(C)C1Cc2cc([N+](=O)[O-])ccc2N1 (stereo not drawn)	110 to 112
CC(C)n1c(/C=C/C2CC(O)CC(=O)O2)c(-c2ccc(F)cc2)c2ccccc2c1=O (stereo not drawn)	151 to 154
Cc1c(NC(=O)c2ccc(-c3ccc(Cl)s3)cc2F)ccc2cc(CN3CCCCC3)cnc12	205 to 206
c1ccc2c(c1)CC(CN1CCN(c3ccc4c(c3)CCO4)CC1)C2	180 to 182
O=c1c2cc3ncn(CCc4cccc(F)c4)c(=O)c3cc2ncn1CCc1cccc(F)c1	250 to 251
